Where a name gives a salt, the structure may show the parent alone. Read-outs that look alike come from different tables or passages of the source.
Columns and labels:
[1] = target: 2,3-epoxysqualene-lanosterol cyclase (Candida albicans, UniProt Q04782); assay: Inhibition of 2,3-epoxysqualene-lanosterol cyclase from Candida albicans (cell-free extract, 14C-squalene epoxide); format: biochemical
Candida albicans = assay: Agar dilution method, MIC alone and in combination with sterol biosynthesis inhibitors, FIC; format: cell-based; conditions: for MIC: Candida albicans, 48 h, alone, 37° C., 2 days
[2] = Acute toxicity in the case of subcutaneous administration to mice; conditions: mouse, in vivo, sc
Experimental: The IC50 values are determined graphically and are given in μg of test substance per ml. Table I contains IC50 values determined in the above test for representative members of the class of compound defined by formula I as well as data concerning the acute toxicity in the case of subcutaneous administration to mice (LD50 in mg/kg).

[3] = C. albicans cell-free extract, pH 6.9, 30°, 1 hour, read-out: IC50 (converted)

Chain of 2,3-epoxysqualene-lanosterol cyclase (Q04782 whole entry): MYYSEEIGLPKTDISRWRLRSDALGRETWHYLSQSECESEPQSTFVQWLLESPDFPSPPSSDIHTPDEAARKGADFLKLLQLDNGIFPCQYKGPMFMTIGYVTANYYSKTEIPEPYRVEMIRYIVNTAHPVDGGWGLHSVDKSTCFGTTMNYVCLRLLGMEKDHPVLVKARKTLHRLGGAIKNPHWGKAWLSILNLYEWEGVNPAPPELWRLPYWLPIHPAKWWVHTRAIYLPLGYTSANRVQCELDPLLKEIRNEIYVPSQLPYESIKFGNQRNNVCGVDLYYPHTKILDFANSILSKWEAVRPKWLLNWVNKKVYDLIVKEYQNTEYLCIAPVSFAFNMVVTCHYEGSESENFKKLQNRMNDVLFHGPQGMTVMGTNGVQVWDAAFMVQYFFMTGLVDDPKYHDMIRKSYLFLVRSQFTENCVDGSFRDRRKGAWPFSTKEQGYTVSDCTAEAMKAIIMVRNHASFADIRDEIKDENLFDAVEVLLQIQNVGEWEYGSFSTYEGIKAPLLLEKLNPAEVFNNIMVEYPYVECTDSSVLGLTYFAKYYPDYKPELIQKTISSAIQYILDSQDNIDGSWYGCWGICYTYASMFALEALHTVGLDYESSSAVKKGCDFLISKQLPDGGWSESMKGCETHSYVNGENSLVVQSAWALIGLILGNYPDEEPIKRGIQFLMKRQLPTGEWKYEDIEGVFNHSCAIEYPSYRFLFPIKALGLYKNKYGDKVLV

Row | SMILES | IC50 [1] [nM] | IC50 [1, 3] [nM] | other results
1 | C=CCN(C)CCCCCCOc1ccc(C(=O)c2cccc(C)c2C)cc1 [Compound 35, 4-[[6-(allylmethylamino)hexyl]oxy]-2',3'-dimethylbenzophenone] | 224 | – | –
2 | Cc1cc(C(=O)c2ccccc2)ccc1OCCCCCCN(C)C [Compound 25, 4-[[6-(dimethylamino)hexyl]oxy]-3-methylbenzophenone] | – | 560 | –
3 | CN(C)CCCCCCOc1cccc(C(=O)/C=C/c2ccccc2)c1 [Compound 10, (E)-3'-[[6-(dimethylamino)hexyl]oxy]-3-phenylacrylophenone] | – | 6540 | –
4 | C=CCN(C)CCCCCCOc1ccc(C(=O)Cc2ccccc2)cc1 [Compound 32, 4-[[6-(allylmethylamino)hexyl]oxy]-2-phenylacetophenone] | 95.8 | – | –
5 | CN(C)CCCCCCOc1ccc(C(=O)c2ccc(Cl)cc2Cl)cc1 [Compound 27, 4-[[6-(dimethylamino)hexyl]oxy]-2',4'-dichlorobenzophenone] | – | 659 | –
6 | CCN(CC)CCCCCCOc1ccc(C(=O)c2ccccc2)cc1 [Compound 9, 4'-[[6-(diethylamino)hexyl]oxy]benzophenone] | – | 1020 | –
7 | CN(C)CCCCCCOc1ccc(C(=O)CCc2ccccc2)cc1 [Compound 8, 4'-[[6-(dimethylamino)hexyl]oxy]-3-phenylpropiophenone] | – | 990 | –
8 | CCN(CC)CCCCCCOc1cccc(C(=O)CCc2ccccc2)c1 [Compound 4, 3'-[[6-(diethylamino)hexyl]oxy]-3-phenypropiophenone] | – | 1570 | –
9 | C=CCN(C)CCCCCCOc1ccc(C(=O)c2ccccc2)cc1Cl [Compound 39, 4-[[6-(allylmethylamino)hexyl]oxy]-3-chlorobenzophenone] | 64.8 | – | –
10 | C=CCN(C)CCCCCCOc1ccc(C(=O)c2ccc(Cl)cc2Cl)cc1Cl [Compound 40, 4-[[6-(allylmethylamino)hexyl]oxy]-2',3,4'-trichlorobenzophenone] | 57.2 | – | –
11 | C=CCN(C)CCCCCCOc1ccc(C(=O)c2ccc(F)cc2)cc1 [Compound 33, 4-[[6-(allylmethylamino)hexyl]oxy]-4'-fluorobenzophenone] | 83.9 | – | –
12 | O=C(c1ccccc1)c1ccc(OCCCCCCN2CCC2)cc1 [Compound 17, 4-[(6-(azetidinyl)hexyl)oxy]benzophenone] | 1780 | – | –
13 | CNCCCCCCOc1ccc(C(=O)c2ccccc2)cc1 [Compound 24, 4-[[6-(methylamino)hexyl]oxy]benzophenone] | – | 963 | –
14 | CN(C)CCCCCCOc1ccc(C(=O)c2c(F)c(F)c(F)c(F)c2F)cc1 [Compound 15, 4'-[[6-(dimethylamino)hexyl]oxy]-2,3,4,5,6-pentafluorobenzophenone] | – | 2140 | –
15 | C=CCN(C)C/C=C/COc1ccc(C(=O)c2ccccc2)cc1 [Compound 41, trans-4-[[4-(allylmethylamino)-2-butenyl]oxy]benzophenone] | 62.2 | – | –
16 | CN(C)C/C=C/COc1ccc(C(=O)c2ccccc2)cc1 [Compound 43, trans-4-[[4-(dimethylamino)-2-butenyl]oxy]benzophenone] | – | 745 | –
17 | CN(C)CCCCCCOc1ccc(CC(=O)c2ccccc2)cc1 [Compound 23, 2-[4-[[6-(dimethylamino)hexyl]oxy]phenyl]acetophenone] | – | 560 | –
18 | CCCN(CCC)CCCCCCOc1ccc(C(=O)c2ccccc2)cc1 [Compound 16, 4-[[6-(dipropylamino)hexyl]oxy]benzophenone] | – | 2410 | –
19 | CN(C)CCCCCCOc1cccc(C(=O)c2ccccc2)c1 [Compound 13, 3-[(6-(dimethylamino)hexyl)oxy]benzophenone] | – | 6150 | –
20 | CN(C)CCCCCCCCOc1ccc(C(=O)c2ccccc2)cc1 [Compound 19] | – | 1190 | –
21 | CN(C)CCCCCOc1ccc(C(=O)c2ccccc2)cc1 [Compound 2, 4-[(5-(dimethylamino)pentyl)oxy]benzophenone] | – | 514 | –
22 | Cc1cccc(C(=O)c2ccc(OCCCCCCN(C)C)cc2)c1C [Compound 26, 4-[[6-(dimethylamino)hexyl]oxy]-2',3'-dimethylbenzophenone] | – | 1190 | –
23 | CCN(CC)CCCCCCOc1ccc(C(=O)C#Cc2ccccc2)cc1 [Compound 14, 4'-[[6-(diethylamino)hexyl]oxy]-3-phenylpropiolophenone] | – | 8210 | –

Row | SMILES | IC50 [1] [nM] | IC50 [1, 3] [nM] | other results
24 | CN(C)CCCCCCCCCOc1ccc(C(=O)c2ccccc2)cc1 [Compound 20, 4-[[9-(dimethylamino)nonyl]oxy]benzophenone] | – | 4350 | –
25 | O=C(c1ccccc1)c1ccc(OCCCCCCN2CCCC2)cc1 [Compound 22, 4-[(6-(pyrrolidino)hexyl)oxy]benzophenone] | – | 967 | –
26 | CC(=O)N1CCN(c2ccc(OCC3COC(Cn4ccnc4)(c4ccc(Cl)cc4Cl)O3)cc2)CC1 (stereo not drawn) [Ketoconazole, reference compound] | – | – | MIC in combination (Candida albicans; C. albicans B4, Compound 6 + Ketoconazole in combination): 0.155 µg/mL; MIC in combination (Candida albicans; C. albicans B5, Compound 6 + Ketoconazole in combination): 0.31 µg/mL; MIC in combination (Candida albicans; C. albicans H12, Compound 6 + Ketoconazole in combination): 0.155 µg/mL; MIC in combination (Candida albicans; C. albicans H29, Compound 6 + Ketoconazole in combination): 0.03 µg/mL; MIC in combination (Candida albicans; C. albicans H42, Compound 6 + Ketoconazole in combination): 0.155 µg/mL; MIC (Candida albicans; C. albicans B4): 5 µg/mL; MIC (Candida albicans; C. albicans B5): 5 µg/mL; MIC (Candida albicans; C. albicans H12): 5 µg/mL; MIC (Candida albicans; C. albicans H29): 0.25 µg/mL; MIC (Candida albicans; C. albicans H42): 10 µg/mL
27 | CN(C)CCCCCCOc1ccc(C(=O)c2ccccc2)cc1 [Compound 3, 4-[(6-dimethylamino)hexyl)oxy]benzophenone hydrochloride] | – | 461 | –
28 | CN(C)CCCCCCOc1cccc(C(=O)CCc2ccccc2)c1 [Compound 11] | – | 2830 | –
29 | CN(C)CCCCCCOc1ccc(C(=O)/C=C/c2ccccc2)cc1 [Compound 5, (E)-4'-[[6-(dimethylamino)hexyl]oxy]-3-phenylacrylophenone] | – | 1710 | –
30 | C=CCN(C)CCCCCCOc1ccc(C(=O)c2ccccc2)cc1 [Compound 31, 4-[[6-(allylmethylamino)hexyl]oxy]benzophenone] | 125 | – | LD50 [2]: 1000 to 2000 mg/kg
31 | CN(C)CCCCCCCOc1ccc(C(=O)c2ccccc2)cc1 [Compound 18, 4-[[7-(dimethylamino)heptyl]oxy]benzophenone] | – | 353 | –
32 | C=CCN(C)CCCCCCOc1ccc(C(=O)c2cc(Cl)cc(Cl)c2)cc1 [Compound 37, 4-[[6-(allylmethylamino)hexyl]oxy]-3',5'-dichlorobenzophenone] | 809 | – | –
33 | C=CCN(C)CCCCCCOc1ccc(C(=O)c2ccc([N+](=O)[O-])cc2)cc1 [Compound 38, 4-[[6-(allylmethylamino)hexyl]oxy]-4'-nitrobenzophenone] | 101 | – | –
34 | CN(C/C=C/C#CC(C)(C)C)Cc1cccc2ccccc12 [Terbinafin, reference compound] | – | – | MIC in combination (Candida albicans; C. albicans B4, Compound 6 + Terbinafin in combination): 0.55 µg/mL; MIC in combination (Candida albicans; C. albicans B5, Compound 6 + Terbinafin in combination): 0.75 µg/mL; MIC in combination (Candida albicans; C. albicans H12, Compound 6 + Terbinafin in combination): 6.25 µg/mL; MIC in combination (Candida albicans; C. albicans H29, Compound 6 + Terbinafin in combination): 1.55 µg/mL; MIC in combination (Candida albicans; C. albicans H42, Compound 6 + Terbinafin in combination): 6.25 µg/mL; MIC (Candida albicans; C. albicans B4): 12.5 µg/mL; MIC (Candida albicans; C. albicans B5): 6.25 µg/mL; MIC (Candida albicans; C. albicans H12): 100 µg/mL; MIC (Candida albicans; C. albicans H29): 6.25 µg/mL; MIC (Candida albicans; C. albicans H42): 100 µg/mL
35 | C=CCN(C)CCCCCCOc1ccc(C(=O)c2ccc(Cl)cc2Cl)cc1 [Compound 36, 4-[[6-(allylmethylamino)hexyl]oxy]-2',4'-dichlorobenzophenone] | 131 | – | –
36 | CN(C)CCCCCCCCCCOc1ccc(C(=O)c2ccccc2)cc1 [Compound 21, 4-[[10-(dimethylamino)decyl]oxy]benzophenone] | – | 5240 | –
37 | CN(C)CCCCCCOc1ccc(C(=O)c2ccc([N+](=O)[O-])cc2)cc1 [Compound 29, 4-[[6-(dimethylamino)hexyl]oxy]-4'-nitrobenzophenone] | – | 756 | –
38 | CN(C)CCCCOc1ccc(C(=O)c2ccccc2)cc1 [Compound 1, 4-[[4-(dimethylamino)butyl]oxy]benzophenone] | 2860 | – | LD50 [2]: > 4000 mg/kg
39 | CN(C)CCCCCCOc1ccc(C(=O)c2ccc(F)cc2)cc1 [Compound 12, 4-[[6-(dimethylamino)hexyl]oxy]-4'-fluorobenzophenone] | – | 524 | –
40 | CN(C)CCCCCCOc1ccc(C(=O)c2cc(Cl)cc(Cl)c2)cc1 [Compound 28, 4-[[6-(dimethylamino)hexyl]oxy]-3',5'-dichlorobenzophenone] | – | 3800 | –
41 | CN(C)CCCCCCOc1ccc(C(=O)c2ccc(Cl)cc2Cl)cc1Cl [Compound 30, 4-[[6-(dimethylamino)hexyl]oxy]-2',3,4'-trichlorobenzophenone] | – | 233 | –
42 | CN(C)C/C=C/COc1ccc(C(=O)c2ccc(Cl)cc2Cl)cc1 [Compound 44, trans-4-[[4-(dimethylamino)-2-butenyl]oxy]-2',4'-dichlorobenzophenone] | – | 178 | –
43 | CN(C)CCCCCCOc1ccc(C(=O)Cc2ccccc2)cc1 [Compound 6] | – | 191 | –
44 | C=CCN(C)C/C=C/COc1ccc(C(=O)c2ccc(Cl)cc2Cl)cc1 [Compound 42, trans-4-[[4-(allylmethylamino)-2-butenyl]oxy]-2',4'-dichlorobenzophenone] | 17.9 | – | –
45 | CCN(CC)CCCCCCOc1ccc(C(=O)CCc2ccccc2)cc1 [Compound 7, 4'-[[6-(diethylamino)hexyl]oxy]-3-phenylpropiophenone] | – | 708 | –
46 | C=CCN(C)CCCCCCOc1ccc(C(=O)c2ccccc2)cc1C [Compound 34, 4-[[6-(allylmethylamino)hexyl]oxy]-3-methylbenzophenone] | 87.5 | – | –

Source: patent US5214046A, “Substituted aminoalkoxybenzene anti-fungicidal compositions and use” (Hoffmann-La Roche Inc., priority 1989, dated 1993)
